The source of these data is US9771430B2, “Method of treating a metabolic disorder induced by obesity in a subject in need thereof by administering MK2/3 inhibitors” (THE TRUSTEES OF COLUMBIA UNIVERSITY IN THE CITY OF NEW YORK, priority 2011, dated 2017).

The subject of one assay is TRB3. Kind of assay: TRB3 levels in primary mouse hepatocytes. The class given is cell-based. The note with it: control HCs. Here is the method:
FIGS. 93A-E: Improvement in Insulin-induced Akt Phosphorylation and Glucose Homeostasis by CaMKII Deficiency are Abrogated by Restoring TRB3. FIG. 93A. HCs from Camk2g^fl/fl mice were transduced with adeno-LacZ or -Cre and then 24 h later incubated with BSA or palmitate (0.2 mM) for 19 h. Lysates were immunoblotted for TRB3 and β-actin. FIG. 93B. TRB3 and β-actin were probed in livers from DIO WT mice, Camk2g^−/− mice, or Camk2g^fl/fl mice treated with TBG-LacZ or TBG-Cre. Densitometric quantification of the immunoblot data is shown in the graph (*p<0.05; mean±S.E.M.). FIGS. 93C-E. DIO Camk2g^fl/fl mice were treated with TBG-Cre or TBG-LacZ, and five days later, half of the […] received adeno-TRB3, while the other half received adeno-LacZ control. Livers were assayed for p-Akt, total Aid, TRB3 and β-actin by immunoblotting after fasting the mice for 16 h and then re-feeding them for 4 h. 5 h fasting and fasted-refed blood glucose and plasma insulin were assayed after 4 weeks of treatment (Differing symbols indicate p<0.05; mean±S.E.M.). See also FIG. 99.

The next assay has as its system Akt. The assay can be described thus: Insulin-induced Akt phosphorylation in palmitate-treated primary mouse hepatocytes. In kind it is cell-based. The note with it: HCs with normal p38 (Ad-LacZ). Here is the method:
FIGS. 92A-D. Inhibition of CaMKII or p38α Improves Insulin-induced Akt Phosphorylation in Palmitate-treated Primary Hepatocytes. FIG. 92A. Primary HCs from WT mice were transduced with adeno-LacZ or -K43A-CaMKII at an MOI of 10 and then 24 h later incubated with either BSA control or 0.2 mM palmitate for 19 h, with the last 5 h in serum-free media. The cells were then treated with 100 nM insulin or vehicle control for 5 min, and lysates were probed for p-Akt, total Akt, and β-actin by immunoblot (left panel) or immunoprecipitated for IRS-1 and then assayed by immunoblot for the total level of IRS-1 or for phospho-Tyr (PY) (right panel). FIG. 92B. HCs from Mapk14^fl/fl mice were transduced with adeno-LacZ or -Cre and 24 h later incubated with palmitate and then insulin as in FIG. 92A. Lysates were probed for p-Akt, total Akt, β-actin (upper panel), p-GSK3β, total GSK3β, p-FoxO1 and total FoxO1 by immunoblot or immunoprecipitated for IR and IRS-1 and then assayed by immunoblot for the total level of the respective proteins or for phospho-Tyr (lower panel). FIG. 92C. Primary human HCs (metabolism-controlled) were transduced with adeno-LacZ or -K43A-CaMKII at an MOI of 30 and then 36 h later incubated with either BSA control or 0.2 mM palmitate for 10 h, with the last 5 h in serum-free media. […]

Another assay has as its system CaMKII. The class given is cell-based, mouse. The method, then:
FIG. 1A. CaMKII enzyme activity was assayed in triplicate wells of primary mouse HCs stimulated with 100 nM glucagon (Gluc) or vehicle control (Veh) for the indicated times (*P<0.05 and **P<0.01 vs. Veh; mean±S.E.M.). FIGS. 1B-1J. Extracts of HCs or liver were probed for phospho-CaMKII, total CaMKII, and β-actin by immunoblot assay. FIG. 1B. HCs were incubated with […] glucagon for the indicated times; FIG. 1C. Glucagon was added to HCs that were pre-treated for 1 h with vehicle control (Veh) or 5 μM BAPTA-AM; FIG. 1D. Glucagon was added to HCs that were pre-treated with 0.5 μM xestospongin (XesC) or to HCs from Ip3r1fl/fl mice transduced with adeno-LacZ control or adeno-Cre (bar graph=Ip3r1 mRNA levels); FIG. 1E. Glucagon was added to HCs that were pre-treated for 1 h with vehicle control (Veh) or 10 μM H89. FIG. 1F. […] FIGS. 1G-1J. In vivo experiments. In FIG. 1G, mice were treated for 30 min with 200 μg kg−1 body weight of glucagon i.p., and in FIG. 1H, mice were pre-treated with 10 pmol g−1 xestospongin C or vehicle control i.p. 4 days prior to glucagon treatment. In FIGS. 1I-1J, mice were fed ad libitum or fasted for 12 h, or fasted for 12 h and then re-fed for 4 h.
Total RNA was extracted from hepatocytes using the RNeasy kit (Qiagen). cDNA was synthesized from 2 μg total RNA using oligo (dT) and Superscript II (Invitrogen). Real-time qPCR analysis and western blotting were performed as previously described (Timmins et al., 2009). Nuclear extraction from liver was performed using the Nuclear Extraction Kit from Panomics according to the manufacturer's instructions.
Immunoblot and RT-qPCR assays were performed as previously described (Timmins et al., 2009). Total RNA was extracted from HCs using the RNeasy kit (Qiagen). cDNA was synthesized from 2 μg total RNA using oligo (dT) and Superscript II (Invitrogen). Nuclear extraction from liver was performed using the Nuclear Extraction Kit from Panomics according to the manufacturer's instructions.

A further assay deals with dach1 and dach2 mRNA. Kind of assay: dach1 and dach2 mRNA in primary mouse hepatocytes. The class given is cell-based. The note with it: WT HCs, 0.5 mM, 6 h. The method, then:
FIG. 115. Palmitate induces dach1 and dach2 mRNA levels. Primary HCs from WT mice were treated with 0.5 mM palmitate for 6 h. RNA was assayed for dach1 and dach2 mRNA by RT-qPCR (*p<0.05; mean±S.E.M.).

The test system of another assay is IP3R. Kind of assay: IP3R activity in FAO hepatocytes (Inositol/ATP-induced calcium release assay). The class given is cell-based, rat. The source says: FIGS. 49A-S. The role of IP3R in forskolin/glucagon-induced G6Pase/PEPCK in cultured hepatocytes and in fasting blood glucose in vivo. FIG. 49 A,B. FSK-Induced G6Pase and PEPCK is Calcium-Dependent. FIG. 49C-D. IP3R Activity is Required for Forskolin- and Glucagon-Induced G6Pase and PEPCK (FAO rat hepatocyte cell line). FIG. 49E-F. IP3R Activity is Required for Forskolin-Induced G6Pase and PEPCK (primary murine hepatocytes). FIG. 49G-H. IP3R1 Anti-Sense Oligonucleotide Suppresses Forskolin-Induced G6Pase and PEPCK (primary murine hepatocytes). FIG. 49I. Forskolin Activates IP3R Activity in FAO Hepatocytes (Inositol/ATP-Induced Calcium Release Assay). FIG. 49J. The PKA Inhibitor H89 Suppresses Forskolin-Induced IP3R Activation. FIG. 49K-L. IP3R Activity is Required for Forskolin-Induced PGC1a. FIG. 49M-N. Calcineurin Inhibitory Peptide Suppresses Forskolin-Induced G6Pase and PEPCK. FIG. 49O. IP3R Activity is Required for Forskolin-Induced Calcineurin Activation. FIG. 49P-Q. IP3R Activity is Required for Forskolin-Induced TORC2 Dephosphorylation and Nuclear Localization. FIG. 49R. TORC2 Transduction Partially Restores Forskolin-Induced G6Pase in IP3R-Inhibited Hepatocytes. FIG. 49S. Xestospongin C Treatment Reduces Fasting Glucose Levels in C57BL/6J Mice.

The subject of a further assay is cytosolic free calcium. The assay can be described thus: Calcium mobilization in primary hepatocytes (Fura-2 imaging). The class given is cell-based, mouse. The note with it: co-/pre-treatment with inhibitor. Here is the method: Mouse primary hepatocytes were plated on glass coverslips and loaded with 5 μM Fura-2 acetoxymethyl ester (Molecular Probes) in the presence of 0.025% (w/v) pluronic F127 (Sigma-Aldrich) in Media 199 (Mediatech) for 30 minutes. […] The ratio of fluorescence intensity at the two excitation wavelengths was calculated after subtracting background fluorescence. [Ca2+]I (cytosolic free calcium concentration) was calculated using a Fura-2 calcium imaging calibration kit (Invitrogen). Images were collected and analyzed using the MetaFluor software package (Universal Imaging Corp.). Graphs represent average responses from groups of 30-40 individual cells from representative single experiments. Bar graphs represent average responses (fold over average baseline) from 150-200 cells per condition. All experiments were repeated at least three times with similar results.

In another assay the test system is ATF4. Kind of assay: Nuclear ATF4 in primary mouse hepatocytes. In kind it is cell-based. The note with it: control HCs. Here is the method: FIGS. 94A-F: Improvement in Insulin-induced Akt Phosphorylation and Glucose Homeostasis by CaMKII Deficiency are Abrogated by Restoring ATF4. FIG. 94A. HCs from Camk2g^fl/fl mice were transduced with adeno-LacZ or -Cre. 24 h later, cells were incubated with tunicamycin (0.5 μg/ml) or vehicle control for 4 h. Nuclear lysates were immunoblotted for ATF4 and nucleophosmin (Np) as a loading control. FIG. 94B. Nuclear ATF4 and nucleophosmin (Np) were probed in livers from DIO Camk2g^fl/fl mice treated with TBG-Cre or TBG-LacZ or ob/ob mice treated with adeno-LacZ or -K43A-CaMKII. FIG. 94C. HCs from […] were transduced with adeno-LacZ or -Cre and then 4 h later, half of the adeno-Cre transduced cells received adeno-ATF4, while the other half received adeno-LacZ control. After 24 h, the cells were incubated with palmitate and then insulin-induced p-Akt was assayed as in FIG. 92. FIG. 94D. As in FIG. 94C, except that Trb3 mRNA was assayed by RT-qPCR (Bars with different symbols are different from each other and control, p<0.01; mean±S.E.M.). […] Livers were assayed for p-Akt, total Aid, β-actin and nuclear ATF4 and nucleophosmin (Np) by immunoblotting after insulin injection through portal vein. 5 h fasting blood glucose and plasma insulin were assayed after three weeks of treatment (Differing symbols indicate p<0.05; mean±S.E.M.). See also FIG. 100.

`CCCCCCCCCCCCCCCC(=O)O` [palmitate]: the TRB3 levels entry with TRB3 was “increase”. In addition, the “insulin-induced p-Akt signal” value in the assay with Akt was “lowered”. Besides, the “p-CaMKIIγ in HCs” value in the assay on CaMKII (ER stress activation) is “increased”. Further, the “dach1 and dach2 mRNA levels” value with dach1 and dach2 mRNA was “induces”.

In the case of `Cl.Cl.O=S(=O)(NCCNCC=Cc1ccc(Br)cc1)c1cccc2cnccc12` [H89, N-[2-[[3-(4-Bromophenyl)-2-propenyl]amino]ethyl]-5-isoquinolinesulfonamide dihydrochloride], in the assay with IP3R, the “Forskolin-Induced IP3R Activation” value is “Suppresses”. The “cytosolic calcium mobilization in response to glucagon (and forskolin)” value with cytosolic free calcium is recorded as “partially reversed”. Also, the “glucagon-induced CaMKII phosphorylation” value with CaMKII (HCs pre-treated with inhibitor, then glucagon) is recorded as “markedly inhibited”.

Take tunicamycin: the ATF4 entry in the assay on ATF4 was “increased”.
